The values below come from patent US7094752B2 (Chiron Corporation, priority 1997, dated 2006).

In assay [1] the target is T1, Mac-1 and uPAR (Homo sapiens, UniProt Q03405).
T1 construct: endogenous in cells; host or cells: U937 cell line
Nature of the assay: Mac-1/uPAR interaction in U937 cell line. Format: cell-based. Conditions: 100 μM.

The target of assay [2] is soluble uPAR (Homo sapiens, UniProt Q03405). Format: binding. Details: sUPAR, soluble truncated form of the urokinase receptor; made in house; host or cells: baculovirus-infected Sf9 insect cells. The method, then: Streptavidin, 100 μl (0.1 mg/ml) in 50 mM Na2CO3, pH 9.6, was added to MaxiSorp wells (Nunc), incubated overnight at 4 C, and then washed with PBS/BSA. Biotinylated sUPAR (25 nM in PBS/BSA) was added to the wells and incubated for 2 hours at room temperature prior to washing. Competitive peptide inhibitors were added to the wells immediately prior to addition of the bacteriophage. The wells were incubated for one hour at room temperature, then washed and bound bacteriophage eluted with 6M urea in 0.1N HCl, pH 2.5. After 15 minutes, the urea eluate was brought to neutral pH by addition of 2M Tris base and the bacteriophage titers of input stocks and elutions measured by plaque formation assay. Results were expressed as the percent of input bacteriophage which bind to the wells. Alternatively, the amount of bacteriophage was determined in an ELISA where phage were preincubated with HRP-conjugated anti-M13 antibody for 30 minutes at room temperature before dispensing into wells prepared as above and incubated for one hour at room temperature. The final anti-M13 conjugate dilution was 1:4000. After washing, TMB substrate (100 μl/well) was added and color development was stopped with 0.8N H2SO4 (100 μl/well). The absorbance at 450 nm was then measured in a 96 well plate reader.
Chain of soluble uPAR (Q03405 23-305 limits assumed): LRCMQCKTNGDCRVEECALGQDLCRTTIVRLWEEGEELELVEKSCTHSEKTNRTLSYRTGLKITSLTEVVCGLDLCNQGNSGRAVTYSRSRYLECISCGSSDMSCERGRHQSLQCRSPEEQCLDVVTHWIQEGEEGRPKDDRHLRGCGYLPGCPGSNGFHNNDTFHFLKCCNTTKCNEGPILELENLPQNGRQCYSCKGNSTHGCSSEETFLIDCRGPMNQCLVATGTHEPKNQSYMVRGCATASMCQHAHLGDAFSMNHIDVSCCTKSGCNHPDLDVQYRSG
In a uPAR binding assay, the following analogs were tested in a competition with phage displaying either peptide 25 or peptide 9. The analogs comprise both natural and unnatural amino acids.
The analogs were tested in an assay utilizing soluble uPAR, similar to the method described in Example 2. The analogs were tested for their ability to compete with phage displaying either peptide 9 or peptide 25. Analogs 3–61 were tested in competition with peptide 25. Analogs 62–96 were tested in competition with peptide 9. Approximately 10^8 plaque forming units of the phage were used in the assay.
The analogs were tested at a concentration at 40 μM in the uPAR competition assay with phage displaying peptide 25. The results below show which analogs were active.
Analogs 31–61 were tested for their ability to compete with phage displaying peptide 25. The active analogs were tested further at two concentrations, 5 μM and 2.5 μM. These concentrations were calculated based on the synthesis reactions. However, the sequences * were further tested and determined to contain high amounts of amino acids and the quantity tested could have been higher than 5 μM or 2.5 μM.

The target in assay [3] is T2, β1/caveolin/uPAR complexes (Homo sapiens, UniProt Q03405).
T2 construct: The full length cDNA for the human urokinase receptor; expressed in transfected cells; host or cells: 293 embryonic kidney cells stably expressing GPI-uPAR
T2 sequence (Q03405 23-305, one chain of several): as the sequence (Q03405 23-305 limits assumed) above
Nature of the assay: Immunoprecipitation of uPAR with β1 / caveolin. It is filed as cell-based. Conditions: 100 μM, co-immunoprecipitation. The method, then: When triton X 100 (0.2%) insoluble fraction of GPI-uPAR 293 cells is solubilized in polar detergents, immunoprecipitation of β1 clearly co-precipitates uPAR as described in Filardo et al, J. Cell. Biol. 1995, in press: Cells (5×10^6) were cultured overnight, washed twice with microtubule stabilization buffer (0.1M PIPES, pH 6.9, 2M glycerol, 1 mM EDTA, and 1 mM magnesium acetate), and then extracted on ice for 5 minutes in buffer containing 0.2% Triton X 100 and inhibitors (1 mM sodium orthovandate, 1 mM phenylsulfonyl fluoride, […] leupeptin). The insoluble residues were solubolized at 4° C. for 20 minutes in 1× RIPA buffer (150 mM sodium chloride, 50 mM Tris-HCl, pH 7.5, 1% deoxycholate, 0.1% sodium dodecyl sulfate, 1% Triton X-100) supplemented with protease inhibitors. The triton soluble fraction was diluted 1:1 with 2× RIPA buffer. Both fractions were centrifuged for 10 minutes at 6000 rpm, and then precleared by incubation with nonimmune serum and protein A-agarose for 2 hours at 4° C.
Supernatants were transferred to fresh tubes and incubated with antibodies against β1 or caveolin for 2 hours at 4° C. Immune complexes were recovered with protein A-agarose. The washed immunoprecipitates were subjected to 8% SDS-PAGE, and transferred onto a nitrocellulose membrane. […]

T1 sequence (Q03405 23-305 limits assumed): as above

As to H-AESTYHHLSLGYMYTLN-NH2 [peptide 25], the “interaction between Mac-1 and uPAR” value in assay [1] is “abrogated the interaction”. Also, in assay [2] (2500.0), the “% Inhibition 2.5 uM” value is 45%. Further, in assay [2] (5000.0), the “% Inhibition 5 uM” value came to 59%. Moreover, the “disruption of β1/caveolin/uPAR complexes” value in assay [3] is on record as “largely disrupted”.
